What all share (format): cell-based
One data set concerns Namalwa cells. Description: CellTiter-Glo cell viability, Namalwa cells. The following applies: co-dosed 1:1 with CRBN ligand 8047, Namalwa, 72 h, 10 nM-10 μM. On the procedure:
CellTiter-Glo® 2.0 Cell Viability Assay (Promega) was carried out following the manufacturer's recommendations. Cells were seeded at a density of 1000 cells/well in a white 96 well plates (Corning, #3917) in a total volume of 100 μl with respective monomers, combinations of BRD ligands together with E3 ligase ligands or vehicle control treatment. After a 72 h incubation, 100 ul of the CellTiter-Glo® substrate was added per well and luminescence was read on a Spectramax M5 (Molecular Devices). Dose-response curves were generated using Graphpad Prism software.
Namalwa cells (1×10^4) were treated for 72 hours with the compounds solubilized in DMSO. Compounds were added at 10 nM-10 μM each. Cellular viability was determined using the CellTiter-Glo® Luminescent Cell Viability Assay (Promega) described above. FIG. 56 depicts the CURE-PRO-mediated loss of cellular viability for the BRD-E72 monomer (JQ1 derivatives comprising of boronic acid linkers), and the CRBN ligand, 8047 (a pomalidomide derivative comprising diol linkers) combined in a 1:1 ratio.

Another data set deals with caspase 3/7. Description: Caspase-Glo 3/7 assay, Namalwa cells. Particulars: 1:1 with CRBN ligand 8047, Namalwa, 24 h. On the procedure:
Caspase-glo® assay (Promega) was conducted following the manufacturer's recommendations. Cells were seeded at a density of 5000 cells/well in a white 96 well plates (Corning, #3917) in a total volume of 100 μl with respective monomers, combinations of BRD ligands together with E3 ligase ligands or vehicle control treatment. After a 24 h incubation, 100 μl of the […] substrate was added per well and luminescence was read on a Spectramax M5 (Molecular Devices).
Namalwa cells (5×10^4) were treated for 24 hours with the compounds solubilized in DMSO. FIG. 57 is a bar graph depiction of fold increase of apoptosis assessed via caspase 3/7 activity using the Caspase-Glo assay (Promega) described above.
Molm-13 (FIG. 76A) or Namalwa (FIG. 76B) cells (5×10^4) were treated for 24 hours with the compounds solubilized in DMSO in white 96 well plates (10 nM-10 μM solubilized in DMSO). FIG. 76 is a bar graph depiction of fold increase of apoptosis assessed via caspase 3/7 activity using the Caspase-Glo assay (Promega) described above.

For data set [1], the target named is T1, BRD4 (Homo sapiens, UniProt O60885). The data set can be described thus: Summary of BRD4 degradation by CURE-PRO pairs, estimated from Western Blot or WES. Set-up: endogenous in cells. The following applies: Table 1, aryl-boronic acid BRD4 ligand + 8047. In a few lines:
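Namalwa, Ramos, HeLa, MCF7, HT29 or HCT116 cells treated 24 h with compounds in DMSO; RIPA lysates analysed by Western blot (ECL) or capillary WES immunodetection. Check mark denotes 30% to 70% or higher protein degradation.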

The target of data set [2] is T1, BRD4. Description: CURE-PRO-mediated BRD4 degradation in HeLa cells, Western blot. Set-up: endogenous in cells; host or cells: HeLa. Particulars: 24 h. A digest of the protocol:
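HeLa cells (2.5×10^6) treated 24 h with DMSO-solubilized compounds, degrader pairs combined 1:1, at 1 nM-1 μM, 1-10 μM, 10 μM or 10 and 100 μM each depending on series. RIPA lysates (10-20 μg protein) run on SDS-PAGE and immunoblotted for BRD4 with ECL detection.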

For data set [3], the target named is T1, BRD4. Description: CURE-PRO-mediated BRD4 degradation in HeLa cells, WES capillary electrophoresis (ProteinSimple). Further details: endogenous in cells; host or cells: HeLa. On the procedure: All cell lines were purchased from ATCC or DSMZ and grown at 37° C. with 5% CO2. Human HeLa cells were cultured in complete growth medium (Dulbecco's modified Eagle's medium (DMEM) supplemented with 10% FBS); MCF7 cells were cultured in complete growth medium (Dulbecco's modified Eagle's medium (DMEM) supplemented with 10% FBS and 0.01 mg/ml human recombinant insulin (Sigma Aldrich); Namalwa and Ramos cells were cultured in complete growth medium (RPMI 1640 medium supplemented with 10% FBS); HCT116 and HT29 cells were cultured in complete growth medium (McCoy's 5a Medium supplemented with 10% FBS). For cellular degradation of BRD4 studies cells were seeded in a 12-well plate at 70-80% confluency, allowed to attach overnight, and incubated with the indicated compounds for the indicated time. When indicated, a 15-minute pretreatment with 10 μM pomalidomide, 10 μM VHL298, 10 μM Nutlin3a, 1 μM MG-132 or 1 μM Carfilzomib was performed before the addition of CURE-PROs. For washout studies, after CURE-PRO treatment, media was aspirated and incubated with complete medium for the indicated time before lysis.
WES Simple analysis was performed on WES system (ProteinSimple-Biotechne) according to the manufacturer's instructions. Total protein concentrations of cell lysates were determined by the Pierce BCA kit (Thermo Fisher). 3 μL of 0.3 μg/μL of the protein lysate was loaded onto a 12- to 230-kDa WES assay plate (ProteinSimple) where 300 nL sample was withdrawn through a capillary, subjected to electrophoretic separation of proteins by size, and followed by the simultaneous, HRP-based detection of proteins using the Anti-Rabbit Detection Module (Proteinsimple: #DM-001). The electropherograms were checked then the automatic peak detection was manually corrected if it was required.
HeLa cells (2.5×10^6) were treated for 4-24 hours with the compounds solubilized in DMSO. After 4 hours, indicated points were washed and cells were left in full growth media. Compounds were added at 10 μM each. Standardized protein samples were electrophoresed and imaged as described in the WES ProteinSimple section above. FIGS. 44 and 45 depict the time-dependence of CURE-PRO-mediated BRD4 degradation with the BRD-E52 ligand (FIG. 44) and BRD-E72 ligand (FIG. 45), both JQ1 derivatives comprising of boronic acid linkers, and the CRBN binding ligands (8046, 8047, and 8066), pomalidomide derivatives comprising diol linkers.
HeLa cells (2.5×10^6) were treated for 24 hours with the compounds solubilized in DMSO. Compounds were added at 100 nM-10 μM each. Standardized protein samples were electrophoresed and imaged as described in the WES ProteinSimple section above. FIG. 46 depicts the concentration-dependence of CURE-PRO-mediated BRD4 degradation and the requirement for monomer dimerization.

The next data set addresses T2, CRBN (Homo sapiens, UniProt Q96SW2).
T2 construct: endogenous in cells; host or cells: HeLa
Description: CURE-PRO-mediated CRBN degradation in HeLa cells, Western blot. Particulars: 24 h. As for the experimental part:
Namalwa, Ramosm HeLa, MCF7, or HT29 HCT116 cells (2.5-3×10^6) were treated for 24 hours with the indicated compounds solubilized in DMSO. The cells were washed in ice-cold PBS and were then lysed in RIPA lysis buffer (150 mM NaCl, 5 mM EDTA, 1% NP-40, 0.5% sodium deoxycholate, 0.1% SDS, 50 mM Tris, pH 8.0.) with Roche protease inhibitor complete cocktail and phosphatase inhibitors (10 mM sodium fluoride, 10 mM sodium pyrophosphate, 1 mM sodium orthovanadate and 20 mM β-glycerophosphate). The total protein concentrations were determined by Bradford Protein Assay (Pierce) and 10-20 μg of protein was loaded onto 4-15% Tris-Glycine gradient gels (Biorad). After standard gel electrophoresis, the separated proteins were transferred to PVDF membrane by wet transfer. The immunoblots were then blocked for 1 hour in 5% skim milk in TBST or 5% BSA in TBST, according to manufacturer's instructions, before an overnight incubation at 4° C. with indicated antibodies and membranes. […] Signal was detected with ECL Western Blotting Substrate (Pierce) and X-ray film processed with a Konica SRX-101 X-ray film processor or captured by Bio-Rad's Chemidoc Imaging system. […]
A general note: A western blot detects proteins with antibodies after separation by electrophoresis.

A further data set deals with HCT116 cells. Description: MTT toxicity of E3 ligase CURE-PRO monomers, HCT116 cells. Particulars: monomer alone, HCT116, 10 nM-30 μM, 24 h. On the procedure: (§1) CURE-PRO ligands for the E3 ubiquitin ligases were assessed for toxicity by MTT assays as described above. CURE-PRO monomers (10 nM-30 μM) were solubilized in DMSO and added in triplicate to cells (1×10^5 cells/well) seeded in 96 well plates on the previous day. HCT116 (FIG. 105A), MCF7 (FIG. 105B), and HT29 cells (FIG. 105C) were treated with the CURE-PRO monomers for 24 h.

For a further data set, the system named is HT29 cells. Description: MTT toxicity of E3 ligase CURE-PRO monomers, HT29 cells. The following applies: monomer alone, HT29, 10 nM-30 μM, 24 h. As for the experimental part: as §1

The values that follow come from patent US20230285570A1, “THERAPEUTICALLY USEFUL CURE-PRO MOLECULES FOR E3 LIGASE MEDIATED DEGRADATION OF PROTEINS, AND METHODS OF MAKING AND USING THEM” (CORNELL UNIVERSITY, priority 2020, published 2023).

“Also recorded” adds a separate entry of the source.

T2 sequence (Q96SW2 whole entry): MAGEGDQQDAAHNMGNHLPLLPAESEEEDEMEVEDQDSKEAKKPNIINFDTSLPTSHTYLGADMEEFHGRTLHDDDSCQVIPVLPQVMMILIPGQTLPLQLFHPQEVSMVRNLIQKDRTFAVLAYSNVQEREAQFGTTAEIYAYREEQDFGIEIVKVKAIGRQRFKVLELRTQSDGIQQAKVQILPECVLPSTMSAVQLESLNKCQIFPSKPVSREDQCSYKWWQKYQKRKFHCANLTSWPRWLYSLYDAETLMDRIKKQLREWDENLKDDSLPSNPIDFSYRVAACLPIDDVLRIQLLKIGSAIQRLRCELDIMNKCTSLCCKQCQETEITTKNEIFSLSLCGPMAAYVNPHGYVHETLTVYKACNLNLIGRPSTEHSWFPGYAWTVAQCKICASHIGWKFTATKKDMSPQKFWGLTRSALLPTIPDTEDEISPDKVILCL

As to `CCNC(=O)C[C@@H]1N=C(c2ccc(Cl)cc2)c2cc(-c3cccc(B(O)O)c3)ccc2-n2c(C)nnc21` [BRD-E72, (3-((4S)-6-(4-chlorophenyl)-4-(2-(ethylamino)-2-oxoethyl)-1-methyl-4H-benzo[f][1,2,4]triazolo[4,3-a][1,4]diazepin-8-yl)phenyl)boronic acid], in the data set with Namalwa cells, the “loss of cellular viability versus monomer alone” value is listed as “an increase in the loss of viability compared to monomer treatment alone; also recorded: marked loss in cell viability”. For the same molecule, in the data set on caspase 3/7, the “caspase 3/7 activation” value is on record as “demonstrates activation of caspase 3/7; also recorded: marked caspase activation”. For the same molecule, the “Degradation of BRD4, combination with CRBN ligand 8047” value at BRD4 [1] was “√ (A black check mark indicates efficacy of 30% to 70% or higher protein degradation)”. For the same molecule, the “BRD4 degradation after pomalidomide preincubation” value on BRD4 [2] (1:1 with 8047, 10 μM, pomalidomide preincubated 15 min at equimolar concentration) is recorded as “inhibition of CURE-PRO-mediated BRD4 degradation”. Besides, the BRD4 degradation result is given as “failed to induce BRD4 degradation” on BRD4 [2] (BRD ligand with pomalidomide (no 8047), HeLa, 10 μM) and “CURE-PRO-mediated degradation of BRD4” at BRD4 [2] (co-treated 1:1 with CRBN ligand 8047, HeLa, 10 μM each). For the same molecule, the “sustained BRD4 degradation after drugs are washed out” value on BRD4 [3] (co-dosed with 8047, 10 μM each, washed after 4 h) is “up to 8 h”. Further, at BRD4 [3] (co-dosed with CRBN ligand 8047, HeLa, 10 μM each, 4-24 h), the “BRD4 degradation, time course” value is “marked BRD4 degradation after 4 h”.

Take `CC(C)(O)C(=O)C(=O)NCc1cccc2c1C(=O)N(C1CCC(=O)NC1=O)C2=O` (centres unmarked) [compound 8065]: the “concentrations at which CRBN degradation is noted” value on CRBN lay within 10 to 100 µM.

`COc1ccc(C2=N[C@@H](c3ccc(Cl)cc3)[C@@H](c3ccc(Cl)cc3)N2C(=O)N2CCN(CCNC(=O)c3cccc(B(O)O)c3)C(=O)C2)c(OC(C)C)c1` [compound 8312, (3-((2-(4-((4S,5R)-4,5-bis(4-chlorophenyl)-2-(2-isopropoxy-4-methoxyphenyl)-4,5-dihydro-1H-imidazole-1-carbonyl)-2-oxopiperazin-1-yl)ethyl)carbamoyl)phenyl)boronic acid]: the “loss of viability (MTT)” value in the data set with HCT116 cells and in the data set with HT29 cells was “loss of viability only noted at higher concentrations (30 μM); also recorded: Toxicity at higher concentrations” in each case.
